# Test results from ChEMBL document CHEMBL3885861, “Open TG-GATES”.
# Species: Rattus norvegicus
# Assay: Open TG-GATES - Regimen: Daily Repeat
# Format: toxicity, organism-based, Sprague-Dawley
# Design: regimen Daily Repeat, gender Male, age 6 weeks
# Details: in vivo, po, route gavage; for APTT / Bas / Eos / Fbg / Hb / Ht / Lym / MCH / MCHC / MCV / Mono / Neu / PT / Plat / RBC / Ret / WBC: tissue Blood; for LIVER: tissue Liver; for A/G / ALP / ALT / AST / BUN / CRE / Ca / Cl / DBIL / GLC / IP / K / LDH / Na / PL / RALB / TBIL / TC / TG / TP / gamma-GTP: tissue Plasma
# [1] = 15 mg/kg, 72 h, dose level Middle, time 3 day
# [2] = 15 mg/kg, […], dose level Middle, time 7 day
# [3] = 15 mg/kg, […], dose level Middle, time 14 day
# [4] = 15 mg/kg, […], dose level Middle, time 28 day
# [5] = 50 mg/kg, 72 h, dose level High, time 3 day
# [6] = 50 mg/kg, […], dose level High, time 7 day
# [7] = 50 mg/kg, […], dose level High, time 14 day
# [8] = 50 mg/kg, […], dose level High, time 28 day
compound,measurement,setting,value
C=C(C)[C@H]1Cc2c(ccc3c2O[C@@H]2COc4cc(OC)c(OC)cc4[C@@H]2C3=O)O1 [ROTENONE],TERMINAL_BW,[1],217.2 g
same,APTT,[1],15.9 s
same,Bas,[1],0%
same,Eos,[1],1%
same,Fbg,[1],211.8 mg/dL
same,Hb,[1],13.1 g/dL
same,Ht,[1],40.2%
same,Lym,[1],71%
same,MCH,[1],20.9 pg
same,MCHC,[1],32.7%
same,MCV,[1],63.9 fL
same,Mono,[1],7.8%
same,Neu,[1],20.4%
same,PT,[1],11.8 s
same,Plat,[1],122 x10_4/uL
same,RBC,[1],628.8 x10_4/ul
same,Ret,[1],6.1%
same,WBC,[1],99.8 x10_2/uL
same,LIVER,[1],10.7 g
same,A/G,[1],2.2
same,ALP,[1],1449.2 IU/L
same,ALT,[1],37.8 IU/L
same,AST,[1],70.6 IU/L
same,BUN,[1],17 mg/dL
same,CRE,[1],0.4 mg/dL
same,Ca,[1],11.8 mg/dL
same,Cl,[1],104.2 meq/L
same,DBIL,[1],0.014 mg/dL
same,GLC,[1],188.4 mg/dL
same,IP,[1],7.3 mg/dL
same,K,[1],4.3 meq/L
same,LDH,[1],117 IU/L
same,Na,[1],141.8 meq/L
same,PL,[1],149.8 mg/dL
same,RALB,[1],3.7 g/dL
same,TBIL,[1],0.038 mg/dL
same,TC,[1],79.2 mg/dL
same,TG,[1],104.8 mg/dL
same,TP,[1],5.5 g/dL
same,gamma-GTP,[1],0.6 IU/L
same,TERMINAL_BW,[2],254.3 g
same,TERMINAL_BW,[3],305.1 g
same,TERMINAL_BW,[4],389.3 g
same,APTT,[2],17 s
same,Bas,[2],0%
same,Eos,[2],1%
same,Fbg,[2],237.8 mg/dL
same,Hb,[2],13.3 g/dL
same,Ht,[2],40.4%
same,Lym,[2],74.2%
same,MCH,[2],20.6 pg
same,MCHC,[2],32.8%
same,MCV,[2],62.9 fL
same,Mono,[2],5.8%
same,Neu,[2],19.2%
same,PT,[2],11.4 s
same,Plat,[2],140.2 x10_4/uL
same,RBC,[2],643.4 x10_4/ul
same,Ret,[2],5%
same,WBC,[2],113.4 x10_2/uL
same,APTT,[3],15.6 s
same,Bas,[3],0%
same,Eos,[3],1%
same,Fbg,[3],240.8 mg/dL
same,Hb,[3],13.8 g/dL
same,Ht,[3],41.7%
same,Lym,[3],75.2%
same,MCH,[3],20.6 pg
same,MCHC,[3],33%
same,MCV,[3],62.3 fL
same,Mono,[3],3.8%
same,Neu,[3],20.2%
same,PT,[3],11.5 s
same,Plat,[3],130 x10_4/uL
same,RBC,[3],670.4 x10_4/ul
same,Ret,[3],3.8%
same,WBC,[3],127.2 x10_2/uL
same,APTT,[4],18 s
same,Bas,[4],0%
same,Eos,[4],1.2%
same,Fbg,[4],196.8 mg/dL
same,Hb,[4],14.9 g/dL
same,Ht,[4],45.4%
same,Lym,[4],77.8%
same,MCH,[4],18.9 pg
same,MCHC,[4],32.8%
same,MCV,[4],57.7 fL
same,Mono,[4],5%
same,Neu,[4],16.2%
same,PT,[4],12.5 s
same,Plat,[4],126.2 x10_4/uL
same,RBC,[4],786 x10_4/ul
same,Ret,[4],1.8%
same,WBC,[4],111.5 x10_2/uL
same,LIVER,[2],13 g
same,LIVER,[3],14.1 g
same,LIVER,[4],17.3 g
same,A/G,[2],2.2
same,ALP,[2],1376.6 IU/L
same,ALT,[2],35.4 IU/L
same,AST,[2],67 IU/L
same,BUN,[2],17.2 mg/dL
same,CRE,[2],0.4 mg/dL
same,Ca,[2],11.5 mg/dL
same,Cl,[2],103.2 meq/L
same,DBIL,[2],0.016 mg/dL
same,GLC,[2],198.6 mg/dL
same,IP,[2],7.4 mg/dL
same,K,[2],4.3 meq/L
same,LDH,[2],110.8 IU/L
same,Na,[2],140.4 meq/L
same,PL,[2],150.6 mg/dL
same,RALB,[2],3.8 g/dL
same,TBIL,[2],0.036 mg/dL
same,TC,[2],82.4 mg/dL
same,TG,[2],105.2 mg/dL
same,TP,[2],5.6 g/dL
same,gamma-GTP,[2],1 IU/L
same,A/G,[3],2.1
same,ALP,[3],1261.6 IU/L
same,ALT,[3],36.2 IU/L
same,AST,[3],68.4 IU/L
same,BUN,[3],18.4 mg/dL
same,CRE,[3],0.4 mg/dL
same,Ca,[3],11.6 mg/dL
same,Cl,[3],105 meq/L
same,DBIL,[3],0.01 mg/dL
same,GLC,[3],188.6 mg/dL
same,IP,[3],6.9 mg/dL
same,K,[3],4.4 meq/L
same,LDH,[3],103.6 IU/L
same,Na,[3],139.6 meq/L
same,PL,[3],140 mg/dL
same,RALB,[3],3.9 g/dL
same,TBIL,[3],0.028 mg/dL
same,TC,[3],77.4 mg/dL
same,TG,[3],95.2 mg/dL
same,TP,[3],5.7 g/dL
same,gamma-GTP,[3],1 IU/L
same,A/G,[4],2
same,ALP,[4],1146.8 IU/L
same,ALT,[4],29.2 IU/L
same,AST,[4],62 IU/L
same,BUN,[4],19.5 mg/dL
same,CRE,[4],0.4 mg/dL
same,Ca,[4],10.9 mg/dL
same,Cl,[4],105.2 meq/L
same,DBIL,[4],0.01 mg/dL
same,GLC,[4],186 mg/dL
same,IP,[4],5.7 mg/dL
same,K,[4],4.5 meq/L
same,LDH,[4],124.8 IU/L
same,Na,[4],141 meq/L
same,PL,[4],150.8 mg/dL
same,RALB,[4],3.9 g/dL
same,TBIL,[4],0.0325 mg/dL
same,TC,[4],68.5 mg/dL
same,TG,[4],180.2 mg/dL
same,TP,[4],5.9 g/dL
same,gamma-GTP,[4],1 IU/L
same,TERMINAL_BW,[5],199.2 g
same,APTT,[5],16.3 s
same,Bas,[5],0%
same,Eos,[5],0.8%
same,Fbg,[5],198.6 mg/dL
same,Hb,[5],13.7 g/dL
same,Ht,[5],41.6%
same,Lym,[5],72.4%
same,MCH,[5],21 pg
same,MCHC,[5],32.9%
same,MCV,[5],64 fL
same,Mono,[5],8%
same,Neu,[5],18.8%
same,PT,[5],12.2 s
same,Plat,[5],126.4 x10_4/uL
same,RBC,[5],649.4 x10_4/ul
same,Ret,[5],3.3%
same,WBC,[5],91.2 x10_2/uL
same,LIVER,[5],9.9 g
same,A/G,[5],2.4
same,ALP,[5],1100.4 IU/L
same,ALT,[5],25.4 IU/L
same,AST,[5],65.4 IU/L
same,BUN,[5],16 mg/dL
same,CRE,[5],0.4 mg/dL
same,Ca,[5],11.8 mg/dL
same,Cl,[5],106.6 meq/L
same,DBIL,[5],0.01 mg/dL
same,GLC,[5],191.2 mg/dL
same,IP,[5],7.5 mg/dL
same,K,[5],4.2 meq/L
same,LDH,[5],93.8 IU/L
same,Na,[5],142.8 meq/L
same,PL,[5],136.4 mg/dL
same,RALB,[5],3.9 g/dL
same,TBIL,[5],0.034 mg/dL
same,TC,[5],82.6 mg/dL
same,TG,[5],52.6 mg/dL
same,TP,[5],5.5 g/dL
same,gamma-GTP,[5],0.8 IU/L
same,TERMINAL_BW,[6],230.8 g
same,TERMINAL_BW,[7],251.7 g
same,TERMINAL_BW,[8],288.8 g
same,APTT,[6],16.5 s
same,Bas,[6],0%
same,Eos,[6],0.6%
same,Fbg,[6],196.4 mg/dL
same,Hb,[6],13.5 g/dL
same,Ht,[6],41.1%
same,Lym,[6],74.8%
same,MCH,[6],21 pg
same,MCHC,[6],32.9%
same,MCV,[6],63.9 fL
same,Mono,[6],6%
same,Neu,[6],18.6%
same,PT,[6],12 s
same,Plat,[6],117.6 x10_4/uL
same,RBC,[6],643.6 x10_4/ul
same,Ret,[6],4.2%
same,WBC,[6],95.8 x10_2/uL
same,APTT,[7],16.5 s
same,Bas,[7],0%
same,Eos,[7],0.8%
same,Fbg,[7],190.2 mg/dL
same,Hb,[7],14.7 g/dL
same,Ht,[7],44.3%
same,Lym,[7],69.4%
same,MCH,[7],20 pg
same,MCHC,[7],33.1%
same,MCV,[7],60.5 fL
same,Mono,[7],7.4%
same,Neu,[7],22.4%
same,PT,[7],12.6 s
same,Plat,[7],128.2 x10_4/uL
same,RBC,[7],733.8 x10_4/ul
same,Ret,[7],3.6%
same,WBC,[7],98.4 x10_2/uL
same,APTT,[8],19.4 s
same,Bas,[8],0%
same,Eos,[8],0.6%
same,Fbg,[8],163.2 mg/dL
same,Hb,[8],16 g/dL
same,Ht,[8],48.6%
same,Lym,[8],80%
same,MCH,[8],18.8 pg
same,MCHC,[8],33%
same,MCV,[8],56.9 fL
same,Mono,[8],4.2%
same,Neu,[8],15%
same,PT,[8],14.2 s
same,Plat,[8],117.8 x10_4/uL
same,RBC,[8],859 x10_4/ul
same,Ret,[8],1.5%
same,WBC,[8],88.4 x10_2/uL
same,LIVER,[6],12.9 g
same,LIVER,[7],13.1 g
same,LIVER,[8],12 g
same,A/G,[6],2.2
same,ALP,[6],1181.6 IU/L
same,ALT,[6],26.2 IU/L
same,AST,[6],65.8 IU/L
same,BUN,[6],18 mg/dL
same,CRE,[6],0.4 mg/dL
same,Ca,[6],11.7 mg/dL
same,Cl,[6],104 meq/L
same,DBIL,[6],0.014 mg/dL
same,GLC,[6],198.6 mg/dL
same,IP,[6],6.4 mg/dL
same,K,[6],4.2 meq/L
same,LDH,[6],103.6 IU/L
same,Na,[6],141 meq/L
same,PL,[6],137.4 mg/dL
same,RALB,[6],4 g/dL
same,TBIL,[6],0.022 mg/dL
same,TC,[6],73 mg/dL
same,TG,[6],80 mg/dL
same,TP,[6],5.8 g/dL
same,gamma-GTP,[6],0.8 IU/L
same,A/G,[7],2.4
same,ALP,[7],1140.4 IU/L
same,ALT,[7],43.2 IU/L
same,AST,[7],101.8 IU/L
same,BUN,[7],22.4 mg/dL
same,CRE,[7],0.4 mg/dL
same,Ca,[7],11.5 mg/dL
same,Cl,[7],105.2 meq/L
same,DBIL,[7],0.014 mg/dL
same,GLC,[7],178.8 mg/dL
same,IP,[7],7.4 mg/dL
same,K,[7],4.3 meq/L
same,LDH,[7],108.4 IU/L
same,Na,[7],140.6 meq/L
same,PL,[7],145.8 mg/dL
same,RALB,[7],3.9 g/dL
same,TBIL,[7],0.032 mg/dL
same,TC,[7],68.4 mg/dL
same,TG,[7],121.2 mg/dL
same,TP,[7],5.6 g/dL
same,gamma-GTP,[7],1 IU/L
same,A/G,[8],2.2
same,ALP,[8],639.6 IU/L
same,ALT,[8],20.2 IU/L
same,AST,[8],53 IU/L
same,BUN,[8],20.8 mg/dL
same,CRE,[8],0.4 mg/dL
same,Ca,[8],10.6 mg/dL
same,Cl,[8],107 meq/L
same,DBIL,[8],0.01 mg/dL
same,GLC,[8],188.2 mg/dL
same,IP,[8],5.9 mg/dL
same,K,[8],4.4 meq/L
same,LDH,[8],79 IU/L
same,Na,[8],142.8 meq/L
same,PL,[8],122.4 mg/dL
same,RALB,[8],3.9 g/dL
same,TBIL,[8],0.038 mg/dL
same,TC,[8],67.6 mg/dL
same,TG,[8],65.2 mg/dL
same,TP,[8],5.8 g/dL
same,gamma-GTP,[8],1 IU/L
